# Experimental data: patent US20030138857A1, “Method of inhibiting atherosclerotic plaque destabilization” (priority 2002, published 2003)
# Several values for one entry are separate records, joined by “and”; a condition that tells them apart may be missing. Identical values can stand only once. Where a SMILES comes first, the peptide text is derived from it. The star is where a group is joined. Cbz = O=C(OCc1ccccc1)*; CH2F = FC*
# System: VSMCs
# Assay: Monocyte/VSMC co-culture apoptosis assay (Hoechst 33342/propidium iodide, apoptotic index)
# Format: cell-based, human
# Details: for inhibition of M-CSF-triggered, monocyte-induced apoptosis of VSMCs: eptifibatide 5 μg/ml, tirofiban 0.35 μg/ml, compared with abciximab; for VSMC apoptosis: M-CSF 100 ng/mL
# Method: VSMCs (passage 3 to 7) were obtained from Clonetics and from heart donors. VSMC identity was confirmed by α-smooth muscle actin staining. VSMCs initially were grown in growth medium (SmGM2; Clonetics) with 5% serum, and at 60% to 70% confluence, the media was changed to a serum-free medium (50:50 of DMEM/F12 media with 5 mL of ITS, PSA, L-glutamine, and nonessential amino acids per 500 mL of solution). After 72-hour incubation in the serum-free medium, VSMCs were co-cultured with monocytes. Co-culture experiments were also conducted with the use of SmGM2 media (5% serum) throughout the experiment.
# Leukocytes were isolated from buffy coat preparations (American Red Cross) by means of the Ficoll-Paque gradient method. Monocytes were isolated by means of an indirect magnetic labeling system and a monocyte isolation kit. The purity of monocytes obtained was […], which was confirmed by flow cytometry with anti-CD-14-FITC and anti-CD45-PE antibodies.
# Freshly isolated monocytes were added 3:1 to VSMCs. Conditions included wells with VSMCs alone (with or without M-CSF) and VSMCs co-cultured with monocytes (with and without M-CSF). Experiments were conducted with either no serum or 5% serum in media. Experiments were also repeated by preincubating VSMCs with a pan-caspase inhibitor (1 hour at 37° C.) (ZVAD-fmk [10 μmol/L/mL]; sequence Z-Val-Ala-Asp [Ome]-CH2 F), before addition of the MMs and M-CSF. Media and ZVAD-fmk were replenished every 24 hours. Specific controls were used for VSMCs with ZVAD-fmk.
# Abciximab, aggrastat, and eptifibatide, 3 established parenteral glycoprotein (GP) IIb/IIIa blockers, were added to MM and VSMC co-cultures before exposure to M-CSF. Controls were used for VSMCs with abciximab, aggrastat, and eptifibatide separately, with or without M-CSF. All experiments were done in triplicate.
# Experiments were done with the use of recombinant human IL-1 β (100 to 1000 pg/mL) in place of M-CSF. Anti-human M-CSF neutralizing antibody (1 μg/mL) was added along with IL-1 β, and the VSMCs plus monocytes were co-cultured for 72 hours. Isotype control, IgG2a (clone 20102.1), was used for VSMCs cultured with monocytes and IL-1 β.
# After 72-hour incubation, MM and VSMC co-cultures were stained live with the Vybrant Apoptosis kit (Molecular Probes), consisting of 2 nuclear stains, Hoechst 33342 (5 mg/mL) and propidium iodide (1 mg/mL). After incubation for 20 minutes at 37° C., coverslips were washed and the cell death index was estimated as previously described (Webster et al, J. Clin. Invest. 104:239-252 ([…])) (apoptotic index=dead cells/[live cells+dead cells]×100).
molecule,measurement,setting,value
"COC(=O)C[C@H](NC(=O)[C@H](C)NC(=O)[C@@H](NC(=O)OCc1ccccc1)C(C)C)C(=O)CF [ZVAD-fmk, Z-Val-Ala-Asp [Ome]-CH2 F, reference compound] (Cbz-Val-Ala-Asp(OMe)-CH2F)",apoptosis induced by co-culture with activated monocytes,VSMCs preincubated with ZVAD-fmk (10 μmol/L/mL),completely abrogated
same,apoptotic index of VSMCs,"VSMCs preincubated with ZVAD-fmk (10 μmol/L/mL), co-cultured with monocytes and M-CSF, 72 h",15.4±0.4%
"N=C(N)NCCCC[C@@H]1NC(=O)CCSSC[C@@H](C(N)=O)NC(=O)[C@@H]2CCCN2C(=O)[C@H](Cc2c[nH]c3ccccc23)NC(=O)[C@H](CC(=O)O)NC(=O)CNC1=O [eptifibatide, reference compound] (HELM PEPTIDE1{[O=C(CCS[*:3])[*:2]].[N=C(N)NCCCC[C@H](N[*:1])C(=O)[*:2]].G.D.W.P.C.[am]}$PEPTIDE1,PEPTIDE1,1:R3-7:R3$$$V2.0)",cell death index,"eptifibatide 5 μg/mL, VSMCs with monocytes and M-CSF",51.3±2.2%
same,"inhibition of M-CSF-triggered, monocyte-induced apoptosis of VSMCs",,unable to confer similar protection
"CCCCS(=O)(=O)N[C@@H](Cc1ccc(OCCCCC2CCNCC2)cc1)C(=O)O [tirofiban, reference compound]","inhibition of M-CSF-triggered, monocyte-induced apoptosis of VSMCs",,unable to confer similar protection
same,cell death index,"tirofiban 0.35 μg/mL, VSMCs with monocytes and M-CSF",65.0±3.4%
"IL-1: recombinant human IL-1 β, monocyte-activating cytokine (R&D Systems)",apoptotic index of VSMCs,VSMCs with monocytes and IL-1 100 pg/mL in place of M-CSF,10.5±2.4%
same,monocyte-induced VSMC death,VSMCs with monocytes and IL-1 500 pg/mL,59.5±3.5%
same,monocyte-induced VSMC death,VSMCs with monocytes and IL-1 1000 pg/mL (1 ng/mL),59±3.8%
"M-CSF: recombinant macrophage colony-stimulating factor (R&D Systems), hematopoietic growth factor (protein, UniProt P09603 33-554, looked up) Macrophage colony-stimulating …: EEVSEYCSHMIGSGHLQSLQRLIDSQMETSCQITFEFVDQEQLKDPVCYLKKAFLLVQDIMEDTMRFRDNTPNAIAIVQLQELSLRLKSCFTKDYEEHDKACVRTFYETPLQLLEKVKNVFNETKNLLDKDWNIFSKNCNNSFAECSSQDVVTKPDCNCLYPKAIPSSDPASVSPHQPLAPSMAPVAGLTWEDSEGTEGSSLLPGEQPLHTVDPGSAKQRPPRSTCQSFEPPETPVVKDSTIGGSPQPRPSVGAFNPGMEDILDSAMGTNWVPEEASGEASEIPVPQGTELSPSRPGGGSMQTEPARPSNFLSASSPLPASAKGQQPADVTGTALPRVGPVRPTGQDWNHTPQKTDHPSALLRDPPEPGSPRISSLRPQGLSNPSTLSAQPQLSRSHSSGSVLPLGELEGRRSTRDRRSPAEPEGGPASEGAARPLPRFNSVPLTDTGHERQSEGSFSPQLQESVFHLLVPSVILVLLAVGGLLFYRWRRRSHQEPQRADSPLEQPEGSPLTQDDRQVELPV",VSMC apoptosis,VSMCs in direct contact with activated monocytes,66.3±1.8%
same,VSMC apoptosis,monocytes separated from VSMCs by porous insert (3-μm pores),21.0±1.0%
same,apoptotic index of VSMCs,VSMCs cultured with M-CSF (100 ng/mL) but without monocytes,15.7±1.5%
same,apoptotic index of VSMCs,"VSMCs cultured with both M-CSF (100 ng/mL) and monocytes, 4 sets of experiments",58.8±3.3%
same,apoptotic index of VSMCs,"VSMCs with M-CSF-activated monocytes, no inhibitor (comparison group of later experiments; M-CSF concentration not given)",60±2.1% and 60.0±3.0% and 51.9±1.6% and 51.9±1.8%
"abciximab: chimeric monovalent and humanized monoclonal antibody Fab fragment; GP IIb/IIIa blocker that binds Mac-1 (antibody, chains of the INN, looked up, V domains shown, Fab) VH: EVQLQQSGTVLARPGASVKMSCEASGYTFTNYWMHWVKQRPGQGLEWIGAIYPGNSDTSYIQKFKGKAKLTAVTSTTSVYMELSSLTNEDSAVYYCTLYDGYYVFAYWGQGTLVTVSA VL: EIVLTQSPVTLSVTPGDSVSLSCRASRDISNNLHWFQQTSHESPRLLIKYASQSMSGIPSRFSGSGSGTDFTLSINSVETEDFGMYFCQQTNSWPYTFGGGTKLEIK",apoptotic index of VSMCs,"abciximab 7 μg/mL, VSMCs with monocytes and M-CSF",19.1±2.3% and 19.1±2.2%
same,apoptotic index of VSMCs,"abciximab 7 μg/mL, VSMCs with monocytes and M-CSF, listed as Abciximab",19.1±2.2%
